Measurements as given in publication PMC9147192, “Small Molecule Arranged Thermal Proximity Coaggregation (smarTPCA)—A Novel Approach to Characterize Protein–Protein Interactions in Living Cells by Similar Isothermal Dose–Responses” (International Journal of Molecular Sciences, 2022).

Legend:
Experiment in all cases: TPP-CCR in living HL-60 cells
Type in all cases: cell-based
[1] = target: T1, RARS (Homo sapiens, UniProt P54136)
T1 construct: endogenous in cells; host or cells: HL-60 (ATCC CCL-240)
T1 sequence (P54136 1-660): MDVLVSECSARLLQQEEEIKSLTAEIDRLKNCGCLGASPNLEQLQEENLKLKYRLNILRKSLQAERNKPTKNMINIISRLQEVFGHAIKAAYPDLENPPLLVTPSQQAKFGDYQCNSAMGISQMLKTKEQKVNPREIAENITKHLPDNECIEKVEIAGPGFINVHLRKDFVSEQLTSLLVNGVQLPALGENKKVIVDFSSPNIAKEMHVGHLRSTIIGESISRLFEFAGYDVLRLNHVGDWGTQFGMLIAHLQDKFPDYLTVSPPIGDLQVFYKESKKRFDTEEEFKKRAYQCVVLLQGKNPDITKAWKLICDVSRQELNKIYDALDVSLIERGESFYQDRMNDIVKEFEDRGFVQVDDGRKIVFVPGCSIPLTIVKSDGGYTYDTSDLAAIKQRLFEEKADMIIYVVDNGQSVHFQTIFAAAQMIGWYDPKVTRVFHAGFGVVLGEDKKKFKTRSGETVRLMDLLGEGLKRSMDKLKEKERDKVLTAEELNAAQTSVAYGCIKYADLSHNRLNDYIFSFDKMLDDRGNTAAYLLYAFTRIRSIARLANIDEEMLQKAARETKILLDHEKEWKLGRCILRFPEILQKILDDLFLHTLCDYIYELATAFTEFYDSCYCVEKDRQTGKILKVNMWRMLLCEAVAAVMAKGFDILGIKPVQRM

[2] = target: T2, PDCD4 (Homo sapiens, UniProt Q53EL6)
T2 construct: endogenous in cells; host or cells: HL-60 (ATCC CCL-240)
T2 sequence (Q53EL6 1-469): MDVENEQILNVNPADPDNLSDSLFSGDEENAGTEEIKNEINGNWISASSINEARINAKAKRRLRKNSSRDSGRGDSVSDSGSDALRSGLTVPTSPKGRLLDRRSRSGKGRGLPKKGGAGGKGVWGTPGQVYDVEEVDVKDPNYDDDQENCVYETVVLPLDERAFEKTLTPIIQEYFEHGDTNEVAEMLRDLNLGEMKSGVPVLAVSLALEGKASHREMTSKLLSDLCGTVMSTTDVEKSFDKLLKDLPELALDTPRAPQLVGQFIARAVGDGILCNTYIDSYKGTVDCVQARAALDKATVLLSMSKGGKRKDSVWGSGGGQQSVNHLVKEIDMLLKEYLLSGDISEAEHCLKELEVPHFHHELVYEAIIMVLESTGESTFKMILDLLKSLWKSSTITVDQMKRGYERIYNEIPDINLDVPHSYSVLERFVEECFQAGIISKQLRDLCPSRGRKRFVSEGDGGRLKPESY

[3] = target: T3, UNC119B (Homo sapiens, UniProt A6NIH7)
T3 construct: endogenous in cells; host or cells: HL-60 (ATCC CCL-240)

[4] = living HL-60 cells, […] °C, TMT-MS

T3 sequence (A6NIH7 whole entry): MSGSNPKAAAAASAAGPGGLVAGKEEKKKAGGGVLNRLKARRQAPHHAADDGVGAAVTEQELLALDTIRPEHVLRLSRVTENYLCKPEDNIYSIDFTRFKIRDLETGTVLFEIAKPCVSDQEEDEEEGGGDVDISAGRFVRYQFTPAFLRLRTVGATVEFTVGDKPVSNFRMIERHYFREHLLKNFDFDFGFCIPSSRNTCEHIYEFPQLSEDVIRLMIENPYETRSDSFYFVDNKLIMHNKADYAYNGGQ

Cc1cnc(Nc2ccc(F)cc2Cl)nc1-c1c[nH]c(C(=O)N[C@H](CO)c2cccc(Cl)c2)c1 [ERK 11e] was tested, and the Hill slope ([1]; TPP-CCR, living cells, RARS) was 0.38, the EC50 [1, 4] was 0.0832 µM and the “Hill slope (RARS)” value [1, 4] was 0.38. For the same compound, the Hill slope ([2]; TPP-CCR, living cells, PDCD4) was 0.69, the “Hill slope (PDCD4)” value [2, 4] was 0.69 and the EC50 ([2]; living HL-60 cells, […] °C, TMT-MS, read-out: pEC50 (PDCD4) (converted)) was 1.05 µM. For the same compound, the Hill slope ([3]; TPP-CCR, living cells, UNC119B) was 0.67, the “Hill slope (UNC119B)” value [3, 4] was 0.67 and the EC50 ([3]; living HL-60 cells, […] °C, TMT-MS, read-out: pEC50 (UNC119B) (converted)) was 1.05 µM.
